In paper PMC8911803, “The Antiprotozoal Activity of Papua New Guinea Propolis and Its Triterpenes” (Molecules, 2022):
Several values for one entry are separate records, joined by “and”; a condition that tells them apart may be missing. Equal entries are not always repeated. Where two headings read alike, the source gives them in different places.

Legend:
T. congolense IL3000 = assay: Antiprotozoal assay, drug-sensitive T. congolense IL3000; format: cell-based, Trypanosoma congolense
T. congolense 6C3 = assay: microbe, parasite or virus in culture; format: cell-based, Trypanosoma congolense; details: for RF resistance factor: T. congolense 6C3 vs IL3000
T. b. brucei S427WT = assay: Alamar blue (resazurin) assay, T. b. brucei s427 wild-type; format: cell-based, Trypanosoma b. brucei
Experimental: (§1) Alamar blue (resazurin) assays were used to obtain the EC50 values for PNG and its fractions in at least three independent determinations.
(§2) The extract and the purified compounds were cultured and tested against T. b. brucei, T. congolense and C. fasciculata as described previously. The T. b. brucei strains were a standard drug-sensitive lab strain, Lister 427 (wild-type) and the derived cell line B48 was developed from the wild-type by gene deletion of the drug transporter TbAT1 followed by in vitro adaptation to pentamidine, leading to the further loss of the gene encoding TbAQP2 [48], rendering it highly resistant to the diamidine and melaminophenyl arsenical classes of trypanocides. The T. congolense strains were the lab strain IL3000 and its diminazene-adapted clone 6C3 [29]. The C. fasciculata strain HS6 was a gift of Prof. Terry Smith (University of St Andrews, UK).

U937 cells = assay: Cytotoxicity against U937 cells (resazurin); format: cell-based, human; details: for EC50 / AVG EC50 U937 cells: n = 3; for SI, selectivity index relative to T. b. brucei WT: EC50(U937)/EC50(TbbWT): U937 vs T. b. brucei WT
Experimental: U937 cells (European Collection of Cell Cultures Cat. No. 85011440, supplied by Sigma Aldrich, Dorset, UK) were cultured as described previously. U937 cells were grown to log phase at 37 °C and harvested at a density of 1 × 10^5 cells/mL in a 96-well plate (TPP, Trasadingen, Switzerland). Aliquots of 100 µL/well of the cells were added and the plate was incubated for 24 h at 37 °C, 5% CO2, 100% humidity. A 2-fold serial dilution of the test compound was carried out in growth medium, in another 96-well plate, and 100 μL of each dilution was then transferred to the cultured cells using a multichannel pipette, followed by another incubation for 24 h. Resazurin dye was then added at a final concentration of 10% (v/v) and the plates were incubated for a further 24 h, after which fluorescence was measured using a Wallac Victor 2 microplate reader (λ Ex/Em: 560/590 nm). The compounds and fractions were tested in triplicate, and cell viability was expressed as a percentage of the drug-free control. The resulting data were analysed using GraphPad Prism 8 to obtain dose-response curves and corresponding mean inhibitory concentration (EC50) values.

T. b. brucei B48 [1] = assay: microbe, parasite or virus in culture; format: cell-based, Trypanosoma b. brucei; details: for RF resistance factor / RF resistance factor (EC50 B48/EC50 WT): T. b. brucei B48 vs S427WT
Experimental: as §1, §2

T. b. brucei B48 [2] = assay: Drug sensitivity using cell count (growth curve) of T. b. brucei B48; format: cell-based, Trypanosoma b. brucei; details: 1×, 2× and 4× EC50, 2 × 10^5 cells/mL, up to 48 h
C. fasciculata = assay: Antiprotozoal assay, C. fasciculata; format: cell-based, Crithidia fasciculata; details: Table 9
[3] = Trypanosoma congolense, Table 7, purified compounds, n = 3, read-out: AVG EC50 T. congolense IL3000
[4] = Trypanosoma congolense, Table 7, purified compounds, n = 3
[5] = Trypanosoma brucei, Table 5, purified compounds, n = 3
[6] = Homo sapiens, U-937, Table 8, purified compounds
[7] = Trypanosoma brucei, read-out: AVG EC50 T. b. brucei B48, Table 5, purified compounds, n = 3
[8] = Table 7, purified compounds, n = 3
[9] = drug-resistant strain vs standard strain
[10] = Table 5, purified compounds, n = 3
[11] = Table 5, purified compounds, n = 3, read-out: AVG EC50 T. b. brucei B48

In the case of `C=C(C)[C@@H]1CC[C@]2(CO)CC[C@]3(C)[C@H](CC[C@@H]4[C@@]5(C)CC[C@H](O)C(C)(C)[C@@H]5CC[C@]43C)[C@@H]12` [Betulin, betulin], the EC50 (T. congolense IL3000; [3]) is reported as 21.5 µg/mL, the RF resistance factor (T. congolense 6C3; Table 7) is reported as 1.03 and the EC50 (T. congolense 6C3; [4]) is reported as 22.1 µg/mL and 49.9 µM. For the same molecule, the EC50 (T. b. brucei S427WT; [5]) was 26.6 µg/mL and 60.1 µM, the EC50 (U937 cells; [6]) was 55.8 µg/mL and 126 µM and the “SI, selectivity index relative to T. b. brucei WT: EC50(U937)/EC50(TbbWT)” value (U937 cells) was 2.1. For the same molecule, the RF resistance factor (T. b. brucei B48 [1]; Table 5) was 0.84 and the EC50 (T. b. brucei B48 [1]; [7]) was 22.3 µg/mL and 50.5 µM.
`C=C(C)[C@@H]1CC[C@]2(C(=O)O)CC[C@]3(C)[C@H](CC[C@@H]4[C@@]5(C)CC[C@H](O)C(C)(C)[C@@H]5CC[C@]43C)[C@@H]12` [Betulinic acid, betulinic acid] was tested, and the EC50 (T. congolense IL3000; [3]) was 17.2 µg/mL, the RF resistance factor (T. congolense 6C3; Table 7) was 1.05 and the EC50 (T. congolense 6C3; [4]) was 18.1 µg/mL. For the same molecule, the EC50 (T. b. brucei S427WT; [5]) was 24.2 µg/mL and 53.1 µM, the EC50 (U937 cells; [6]) was 51.7 µg/mL and 113 µM and the “SI, selectivity index relative to T. b. brucei WT: EC50(U937)/EC50(TbbWT)” value (U937 cells) was 2.1. For the same molecule, the RF resistance factor (T. b. brucei B48 [1]; Table 5) was 0.81 and the EC50 (T. b. brucei B48 [1]; [7]) was 19.6 µg/mL and 42.9 µM.
In the case of `N=C(N)c1ccc(/N=N/Nc2ccc(C(=N)N)cc2)cc1` [Diminazene, reference compound], the EC50 (T. congolense IL3000; Trypanosoma congolense, read-out: AVG EC50 T. congolense IL3000, Table 6, diminazene control, footnote: EC50 in µM) is reported as 0.26 µM, the EC50 (T. congolense IL3000; Trypanosoma congolense, read-out: AVG EC50 T. congolense IL3000, Table 7, purified compounds, n = 3) is reported as 0.28 µM and the RF resistance factor (T. congolense 6C3; Table 6) is reported as 5.90. The RF resistance factor (T. congolense 6C3; Table 7) was 5.5, the EC50 (T. congolense 6C3; Trypanosoma congolense, Table 6, diminazene control, footnote: EC50 in µM) was 1.54 µM and the EC50 (T. congolense 6C3; [4]) was 1.55 µM.
For `CC(C)(O)[C@@H]1CC[C@]2(CO)CC[C@]3(C)[C@H](CC[C@@H]4[C@@]5(C)CC[C@H](O)C(C)(C)[C@@H]5CC[C@]43C)[C@@H]12` [Hydroxybetulin, 20-hydroxybetulin], the “AVG EC50 T. congolense IL3000” value (T. congolense IL3000; Table 6, n = 3) was 5.77 µg/mL, the “AVG EC50 T. congolense IL3000” value (T. congolense IL3000; [8]) was 5.77 µg/mL and the “AVG EC50 T. congolense IL3000” value (T. congolense IL3000; Table 7, purified compounds, n = 3, listed as hydroxybetulin) was 5.8 ± 1.3 µg/mL. The “Effect on in vitro growth of T. b. brucei B48 (cell count over time)” value (“Effect … (cell count over time)” for short) (T. b. brucei B48 [2]) was “more trypanostatic effect”, the “Effect … (cell count over time)” value (T. b. brucei B48 [2]; listed as 20-hydroxybetulin) was “trypanostatic” and the RF resistance factor (T. congolense 6C3; Table 6) was 0.48. The “AVG EC50 T. congolense 6C3” value (T. congolense 6C3; Table 6, diminazene-resistant, n = 3) was 6.09 µg/mL, the “AVG EC50 T. congolense 6C3” value (T. congolense 6C3; [8]) was 2.77 µg/mL and the EC50 (T. congolense 6C3; [8]) was 6.09 µM. The “fold activity against drug-resistant strain of T. congolense” value (T. congolense 6C3; [9]) was greater than 2 fold, the “AVG EC50 T. b. brucei S427WT” value (T. b. brucei S427WT; Table 3, n = 3) was 2.04 µg/mL and the “AVG EC50 T. b. brucei S427WT” value (T. b. brucei S427WT; [10]) was 2.04 µg/mL. For the same molecule, the EC50 (T. b. brucei S427WT; [10]) was 4.44 µM, the “AVG EC50 T. b. brucei S427WT” value (T. b. brucei S427WT; Table 5, purified compounds, n = 3, listed as hydroxybetulin) was 2.0 ± 0.1 µg/mL and the “fold more active than betulinic acid against T. b. brucei” value (T. b. brucei S427WT; relative to betulinic acid) was 15 fold. The “AVG EC50 C. fasciculata” value (C. fasciculata) was 23.4 µg/mL, the “AVG EC50 U937 cells” value (U937 cells; Table 4) was 47.0 µg/mL and the “AVG EC50 U937 cells” value (U937 cells; Table 8, purified compounds) was 47.0 µg/mL. For the same molecule, the EC50 (U937 cells; Table 8, purified compounds) was 102 µM, the “SI, selectivity index relative to T. b. brucei WT: EC50(U937)/EC50(TbbWT)” value (U937 cells) was 23.0 and the “selectivity index against WT T. congolense” value (U937 cells; U937 vs WT T. congolense) was 8.1. The “selectivity index against resistant T. brucei” value (U937 cells; U937 vs resistant T. brucei) was 48.5, the “selectivity index against resistant T. congolense” value (U937 cells; U937 vs resistant T. congolense) was 17.0 and the “RF resistance factor (EC50 B48/EC50 WT)” value (T. b. brucei B48 [1]; Table 3) was 0.47. For the same molecule, the “AVG EC50 T. b. brucei B48” value (T. b. brucei B48 [1]; Table 3, pentamidine-resistant, n = 3) was 2.09 µg/mL, the RF resistance factor (T. b. brucei B48 [1]; Table 5) was 0.47 and the “AVG EC50 T. b. brucei B48” value (T. b. brucei B48 [1]; [10]) was 0.97 µg/mL. For the same molecule, the EC50 (T. b. brucei B48 [1]; [11]) was 2.09 µM and the “fold activity against drug-resistant strain of T. b. brucei” value (T. b. brucei B48 [1]; [9]) was greater than 2 fold.
For `CC(CC/C=C(/CO)C(=O)O)C1CCC2(C)C3CCC4C(C)(C)C(O)CCC45CC35CCC12C` (stereo not shown) [Hydroxymangiferolic acid, 27-hydroxyisomangiferolic acid], the “AVG EC50 T. congolense IL3000” value (T. congolense IL3000; [8]) was 16.7 µg/mL, the EC50 (T. congolense IL3000; Table 7, purified compounds, n = 3, read-out: AVG EC50 T. congolense IL3000) was 35.3 µM and the RF resistance factor (T. congolense 6C3; Table 7) was 0.94. For the same molecule, the “AVG EC50 T. congolense 6C3” value (T. congolense 6C3; [8]) was 15.7 µg/mL, the EC50 (T. congolense 6C3; [8]) was 33.2 µM and the “AVG EC50 T. b. brucei S427WT” value (T. b. brucei S427WT; [10]) was 13.6 µg/mL. The EC50 (T. b. brucei S427WT; [10]) was 28.8 µM, the EC50 (U937 cells; Table 8, purified compounds) was 260 µM and the “SI, selectivity index relative to T. b. brucei WT: EC50(U937)/EC50(TbbWT)” value (U937 cells) was greater than 7.4. For the same molecule, the RF resistance factor (T. b. brucei B48 [1]; Table 5) was 0.87, the “AVG EC50 T. b. brucei B48” value (T. b. brucei B48 [1]; [10]) was 11.8 µg/mL and the EC50 (T. b. brucei B48 [1]; [11]) was 25 µM.
In the case of `C[C@H]1[C@H](C)CC[C@]2(C(=O)O)CC[C@]3(C)C(=CC[C@@H]4[C@@]5(C)C[C@@H](O)[C@H](O)[C@@](C)(CO)[C@@H]5[C@H](O)C[C@]43C)[C@H]12` [Madecassic acid, madecassic acid], the EC50 (T. congolense IL3000; [3]) is reported as 22.6 µg/mL and 67.6 µM, the RF resistance factor (T. congolense 6C3; Table 7) is reported as 0.88 and the EC50 (T. congolense 6C3; [4]) is reported as 19.8 µg/mL and 59.1 µM. For the same molecule, the EC50 (T. b. brucei S427WT; [5]) was 18.1 µg/mL and 36 µM, the EC50 (U937 cells; [6]) was 90.7 µg/mL and 180 µM and the “SI, selectivity index relative to T. b. brucei WT: EC50(U937)/EC50(TbbWT)” value (U937 cells) was 5.0. The RF resistance factor (T. b. brucei B48 [1]; Table 5) was 0.88 and the EC50 (T. b. brucei B48 [1]; [7]) was 16 µg/mL and 31.7 µM.
`N=C(N)c1ccc(OCCCCCOc2ccc(C(=N)N)cc2)cc1` [Pentamidine, pentamidine, reference compound] was tested, and the “Effect … (cell count over time)” value (T. b. brucei B48 [2]) was “parasites were almost completely eliminated from the media after 32 h”, the EC50 (T. b. brucei S427WT; Trypanosoma brucei, Table 3, pentamidine control, footnote: values in µM) was 0.0034 µM and the EC50 (T. b. brucei S427WT; [5]) was 0.0043 µM. For the same molecule, the “RF resistance factor (EC50 B48/EC50 WT)” value (T. b. brucei B48 [1]; Table 3) was 210, the “RF resistance factor (EC50 B48/EC50 WT)” value (T. b. brucei B48 [1]; Table 3, listed as pentamidine) was 210.8 and the RF resistance factor (T. b. brucei B48 [1]; Table 5) was 145. The EC50 (T. b. brucei B48 [1]; Trypanosoma brucei, read-out: AVG EC50 T. b. brucei B48, Table 3, pentamidine control, footnote: values in µM) was 0.721 µM and the EC50 (T. b. brucei B48 [1]; [7]) was 0.62 µM.
